In general, IC50 refers to the concentration at which inhibition is half-maximal. As a reminder, the inhibition is the percentage by which the read-out fell short of the control.

Holding throughout (assay type): cell-based
One assay deals with OR10/OR7 (Anopheles gambiae, UniProt B5U0U7+Q7QCC7). The assay can be described thus: Ca2+-imaging of stable HEK293T cell line OR10/OR7. The following applies: for inhibition at 4 µM: HEK-293T, read-out: Percent Inhibition OR10 OR7. In outline: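 Stable HEK293T line co-expressing OR10/OR7, plated 2 days on poly-D-lysine, loaded with Ca-4 dye 1.5 hr at room temperature. Compounds premixed into odorant in HBSS and applied on FDSS6000. Ca2+ rise followed by fluorescence at 525 nm (excitation 485 nm).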
Chain of OR10/OR7 (Q7QCC7 whole entry): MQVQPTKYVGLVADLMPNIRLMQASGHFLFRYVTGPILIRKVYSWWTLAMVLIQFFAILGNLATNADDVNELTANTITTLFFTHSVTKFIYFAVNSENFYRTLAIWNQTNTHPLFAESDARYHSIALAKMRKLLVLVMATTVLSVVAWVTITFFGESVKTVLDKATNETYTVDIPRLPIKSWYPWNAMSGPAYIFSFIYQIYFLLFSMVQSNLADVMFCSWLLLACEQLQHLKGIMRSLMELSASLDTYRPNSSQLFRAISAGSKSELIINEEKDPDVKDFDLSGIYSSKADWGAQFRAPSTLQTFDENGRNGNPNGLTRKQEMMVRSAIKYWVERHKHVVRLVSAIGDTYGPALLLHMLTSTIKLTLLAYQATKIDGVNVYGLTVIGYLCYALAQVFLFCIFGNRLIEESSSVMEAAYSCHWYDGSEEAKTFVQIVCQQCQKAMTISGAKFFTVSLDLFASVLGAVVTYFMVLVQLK
Chain of OR10/OR7 (B5U0U7 entry or part of it): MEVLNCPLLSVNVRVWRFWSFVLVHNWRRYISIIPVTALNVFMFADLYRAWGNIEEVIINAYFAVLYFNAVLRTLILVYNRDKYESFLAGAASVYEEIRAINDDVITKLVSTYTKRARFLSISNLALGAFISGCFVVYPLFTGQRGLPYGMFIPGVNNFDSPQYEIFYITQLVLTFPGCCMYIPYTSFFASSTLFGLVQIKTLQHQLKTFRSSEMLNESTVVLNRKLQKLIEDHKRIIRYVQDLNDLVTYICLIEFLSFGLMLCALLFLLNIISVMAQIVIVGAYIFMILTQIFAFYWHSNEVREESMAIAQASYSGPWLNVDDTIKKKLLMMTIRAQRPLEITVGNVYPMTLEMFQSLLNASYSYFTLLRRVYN

The target in another assay is T1, mOREG (Mus musculus, UniProt Q920P2).
T1 sequence (Q920P2 1-313): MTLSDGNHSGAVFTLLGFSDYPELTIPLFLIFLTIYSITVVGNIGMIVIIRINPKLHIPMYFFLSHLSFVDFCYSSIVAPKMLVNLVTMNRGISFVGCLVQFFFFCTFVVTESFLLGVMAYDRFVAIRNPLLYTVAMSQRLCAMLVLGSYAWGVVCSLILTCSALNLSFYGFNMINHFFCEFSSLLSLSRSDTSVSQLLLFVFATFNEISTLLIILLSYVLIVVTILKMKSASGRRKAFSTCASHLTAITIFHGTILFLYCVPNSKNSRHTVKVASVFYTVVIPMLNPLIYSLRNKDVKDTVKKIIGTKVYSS
Nature of the assay: Ca2+-imaging, control receptor mOREG. The following applies: read-out: Percent Inhibition mOREG. The essentials:
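Fluorescent Ca2+ responses (ex 485/em 525 nm) measured in real time after odorant application, with small compounds transferred into the HBSS odorant solutions beforehand. Cells were seeded on poly-D-lysine 2 days ahead and dye-loaded (Ca-4, 1.5 hr, room temperature); controls were HBSS buffer and ligand.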

The target of another assay is T2, TRP channel (TRPM8) (Mus musculus, UniProt Q8R4D5).
T2 construct: Full-length cDNAs for mosquito (Anopheles gambiae) odorant receptor (OR1, OR2, OR7, OR8, OR28), and fly (Drosophila melanogaster) odorant receptor (Or47a, Or83b), mouse TRP channel (TRPM8); expressed in transfected cells
T2 sequence (Q8R4D5 whole entry): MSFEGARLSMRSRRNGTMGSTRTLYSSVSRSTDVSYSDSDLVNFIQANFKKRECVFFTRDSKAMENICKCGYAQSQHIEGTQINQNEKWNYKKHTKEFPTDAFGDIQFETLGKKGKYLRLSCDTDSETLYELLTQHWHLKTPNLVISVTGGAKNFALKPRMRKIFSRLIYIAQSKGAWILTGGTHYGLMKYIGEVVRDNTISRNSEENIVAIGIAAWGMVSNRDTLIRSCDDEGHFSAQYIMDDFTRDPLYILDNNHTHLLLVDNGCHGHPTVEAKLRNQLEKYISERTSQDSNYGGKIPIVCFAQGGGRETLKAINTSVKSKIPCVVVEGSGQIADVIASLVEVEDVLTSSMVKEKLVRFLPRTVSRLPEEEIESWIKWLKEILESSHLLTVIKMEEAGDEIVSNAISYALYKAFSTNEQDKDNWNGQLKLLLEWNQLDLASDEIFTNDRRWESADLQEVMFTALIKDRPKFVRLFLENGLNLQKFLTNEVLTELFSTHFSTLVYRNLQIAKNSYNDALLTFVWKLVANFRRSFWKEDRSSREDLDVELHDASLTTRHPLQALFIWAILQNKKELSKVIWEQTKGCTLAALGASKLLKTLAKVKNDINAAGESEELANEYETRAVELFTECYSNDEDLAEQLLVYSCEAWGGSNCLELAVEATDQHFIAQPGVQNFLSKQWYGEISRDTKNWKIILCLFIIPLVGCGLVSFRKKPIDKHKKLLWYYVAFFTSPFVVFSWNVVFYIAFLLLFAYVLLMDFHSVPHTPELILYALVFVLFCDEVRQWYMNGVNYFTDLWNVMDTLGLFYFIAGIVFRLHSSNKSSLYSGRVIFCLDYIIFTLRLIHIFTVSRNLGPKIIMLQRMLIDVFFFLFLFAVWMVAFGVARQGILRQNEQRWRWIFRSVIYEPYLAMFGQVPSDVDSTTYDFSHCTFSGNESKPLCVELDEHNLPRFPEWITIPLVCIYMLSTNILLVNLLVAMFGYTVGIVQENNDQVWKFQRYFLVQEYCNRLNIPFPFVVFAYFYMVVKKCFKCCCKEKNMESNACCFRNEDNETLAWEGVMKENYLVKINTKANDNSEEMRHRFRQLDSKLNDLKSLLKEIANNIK
The assay can be described thus: Ca2+-imaging of stable HEK293T cell line TRPM8. The following applies: HEK-293T, read-out: Percent Inhibition TRPM8. In outline:
(§1)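 HEK293T stable lines (OR+OR7 co-receptor; TRPM8 single). Ca-4 dye 1.5 hr RT, dark. Compounds ([…] DMSO stock) spiked into odorant plates in HBSS; last two columns DMSO only.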

The target of another assay is OR8/OR7 (Anopheles gambiae, UniProt Q7PUT5+Q7QCC7). The assay can be described thus: Ca2+-imaging of stable HEK293T cell line OR8/OR7. The following applies: for inhibition at 4 µM: HEK-293T, read-out: Percent Inhibition OR8 OR7; for IC50: Table B, read-out: IC50 OR8. The essentials:
as §1

The next assay addresses OR28/OR7 (Anopheles gambiae, UniProt A0A1S4GFY3+Q7QCC7). The assay can be described thus: Ca2+-imaging of stable HEK293T cell line OR28/OR7. The following applies: for inhibition at 4 µM: HEK-293T, read-out: Percent Inhibition OR28 OR7. In outline:
as §1

Where two headings read alike, the source gives them in different places. Where only a bound is given, the exact number is not on record here.

Chain of OR28/OR7 (A0A1S4GFY3 entry or part of it): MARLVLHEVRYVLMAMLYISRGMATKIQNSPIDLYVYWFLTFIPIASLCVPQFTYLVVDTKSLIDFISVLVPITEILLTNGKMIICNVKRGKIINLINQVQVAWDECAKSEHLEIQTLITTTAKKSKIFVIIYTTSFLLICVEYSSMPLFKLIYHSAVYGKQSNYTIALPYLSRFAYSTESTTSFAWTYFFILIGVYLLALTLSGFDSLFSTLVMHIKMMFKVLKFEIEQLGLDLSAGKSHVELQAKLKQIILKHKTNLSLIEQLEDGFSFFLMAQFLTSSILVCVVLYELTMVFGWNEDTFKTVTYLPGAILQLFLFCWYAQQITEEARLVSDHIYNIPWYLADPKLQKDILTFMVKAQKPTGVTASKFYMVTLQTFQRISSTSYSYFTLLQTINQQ
Chain of OR28/OR7 (Q7QCC7 whole entry): as the sequence (Q7QCC7 whole entry) above
Chain of OR8/OR7 (Q7QCC7 whole entry): as above
Chain of OR8/OR7 (Q7PUT5 entry or part of it): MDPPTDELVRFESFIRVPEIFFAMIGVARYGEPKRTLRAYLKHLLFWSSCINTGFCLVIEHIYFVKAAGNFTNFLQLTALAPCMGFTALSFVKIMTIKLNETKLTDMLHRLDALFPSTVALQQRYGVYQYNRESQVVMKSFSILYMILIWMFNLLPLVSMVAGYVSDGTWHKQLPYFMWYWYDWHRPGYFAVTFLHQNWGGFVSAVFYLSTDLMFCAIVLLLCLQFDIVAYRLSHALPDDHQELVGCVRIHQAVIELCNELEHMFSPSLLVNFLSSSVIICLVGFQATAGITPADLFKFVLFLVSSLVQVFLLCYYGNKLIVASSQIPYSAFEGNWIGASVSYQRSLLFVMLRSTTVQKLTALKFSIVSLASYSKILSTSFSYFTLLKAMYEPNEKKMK

`CCN(CC)C(=O)Oc1ccc2c(ccn2Cc2ccccc2Cl)c1NC(=O)CCCCC(=O)OC` [RU-0075446]: the IC50 against OR10/OR7 and on OR28/OR7 was below 100 nM throughout. Further, the inhibition at 4 µM is above 75% on OR10/OR7; below 25% on mOREG; below 25% on TRP channel (TRPM8); below 25% on OR8/OR7; above 75% on OR28/OR7.

With `O=C(c1cccnc1Cl)N1CCOC(COCc2c(Cl)cccc2Cl)C1` (centres unmarked) [RU-0050372], the inhibition at 4 µM on OR10/OR7 (compound applied at 4 μM) was 26 to 50%; at mOREG (compound applied at 4 μM), below 25%; at TRP channel (TRPM8) (compound applied at 4 μM), below 25%; on OR8/OR7 (compound applied at 4 μM), below 25%; on OR28/OR7 (compound applied at 4 μM) it was above 75%. For the same compound, on OR28/OR7 (Table B, read-out: IC50 OR28), the IC50 is below 100 nM.

In the case of `Cc1c(C(=O)NCc2ccco2)cnn1-c1ccccc1` [RU-0047765], the inhibition at 4 µM on OR10/OR7 (compound applied at 4 μM) is 51 to 74%; at mOREG (compound applied at 4 μM), below 25%; at TRP channel (TRPM8) (compound applied at 4 μM), 26 to 50%; at OR8/OR7 (compound applied at 4 μM), below 25%; on OR28/OR7 (compound applied at 4 μM) it was above 75%. The IC50 on OR10/OR7 (Table B, read-out: IC50 OR10) was below 100 nM; on OR28/OR7 (Table B, read-out: IC50 OR28), below 100 nM.

Take `O=C(c1ccco1)N(Cc1ccco1)Cc1nccn1Cc1ccccc1F` [RU-0047694]: the inhibition at 4 µM at OR10/OR7 (compound applied at 4 μM) is 51 to 74%; on mOREG (compound applied at 4 μM), below 25%; on TRP channel (TRPM8) (compound applied at 4 μM), below 25%; at OR8/OR7 (compound applied at 4 μM), 51 to 74%; at OR28/OR7 (compound applied at 4 μM), above 75%. Moreover, the 50% inhibitory concentration (IC50) at OR10/OR7 (Table B, read-out: IC50 OR10) is below 100 nM; on OR8/OR7 it was 100 to 1000 nM; on OR28/OR7 (Table B, read-out: IC50 OR28) it was below 100 nM.

For the compound `COCCN(Cc1c(-c2ccccc2)noc1N(C)C1CCCCC1)C(=O)c1ccccc1OC` [RU-0037275], the inhibition at 4 µM is below 25% at OR10/OR7 (compound applied at 4 μM); 26 to 50% on mOREG (compound applied at 4 μM); below 25% on TRP channel (TRPM8) (compound applied at 4 μM); 51 to 74% on OR8/OR7 (compound applied at 4 μM); above 75% at OR28/OR7 (compound applied at 4 μM). Also, the IC50 at OR8/OR7 is above 1000 nM; at OR28/OR7 (Table B, read-out: IC50 OR28), below 100 nM.
